Measurements taken from US20160009693A1, “HERBICIDAL COMPOUNDS” (SYNGENTA LIMITED, priority 2013, published 2016).

tested on: Amaranthus retoflexus (AMARE); assay: Herbicidal glasshouse test, pre-emergence, AMARE; type: in vivo; details: applied at 1000 g/h, evaluated after 13 days
Method in brief: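 This pre-emergence glasshouse herbicide test used Amaranthus retoflexus sown in standard soil. After one day of cultivation, an aqueous spray made from the technical ingredient in 50:50 acetone/water with 0.5% Tween 20 was applied. Pots stayed at 24/16° C., 14 hours light, 65% humidity, with twice-daily watering. Damage was rated on a five point scale (1=0-19% up to 5=80-100%).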

**Q.** Which “PRE Application AMARE, percentage damage (five point scale)” value (shortened to “PRE Application AMARE, percentage damage”) does the source give for `C#CCn1c(=O)c(C(=O)Nc2nnnn2C)nn(C)c1=O` [Compound 1.089] here?
**A.** The value was 5 (5=80-100%).

**Q.** How did the “PRE Application AMARE, percentage damage” value turn out when `Cn1nnnc1NC(=O)c1nn(C)c(=O)n(CCCC(F)(F)F)c1=O` [Compound 1.090] was run?
**A.** Its value is 5 (5=80-100%).

**Q.** `CC#CCn1c(=O)c(C(=O)Nc2nnnn2C)nn(C)c1=O` [Compound 1.092] was tested. Which “PRE Application AMARE, percentage damage” value did it give?
**A.** Its value is 5 (5=80-100%).

tested on: Setaria faberi (SETFA); assay: Herbicidal glasshouse test, post-emergence, SETFA; type: in vivo; details: applied at 1000 g/h, evaluated after 13 days
Method in brief: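 This post-emergence glasshouse herbicide test used potted Setaria faberi. Plants were cultivated for 8 days under controlled conditions (24/16° C. day/night, 14 hours light, 65% humidity) and then treated with an aqueous spray made from an acetone/water (50:50) solution containing 0.5% Tween 20. After 13 days of further growth with twice-daily watering, damage was rated on a five point scale (5=80-100%; 1=0-19%).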

**Q.** With `C#CCn1c(=O)c(C(=O)Nc2nnnn2C)nn(C)c1=O` [Compound 1.089] as the compound, how does the “POST Application SETFA, percentage damage (five point scale)” value read?
**A.** The value was 5 (5=80-100%).

**Q.** For `Cn1nnnc1NC(=O)c1nn(C)c(=O)n(CCCC(F)(F)F)c1=O` [Compound 1.090], which “POST Application SETFA, percentage damage (five point scale)” value is on record?
**A.** The value was 5 (5=80-100%).

**Q.** With `CC#CCn1c(=O)c(C(=O)Nc2nnnn2C)nn(C)c1=O` [Compound 1.092] as the compound, how does the “POST Application SETFA, percentage damage (five point scale)” value read?
**A.** Its value is 5 (5=80-100%).

tested on: Alopecurus myosuroides (ALOMY); assay: Herbicidal glasshouse test, pre-emergence, ALOMY; type: in vivo; details: applied at 1000 g/h, evaluated after 13 days

**Q.** How did the “PRE Application ALOMY, percentage damage (five point scale)” value (“PRE Application ALOMY, percentage damage” below) turn out when `C#CCn1c(=O)c(C(=O)Nc2nnnn2C)nn(C)c1=O` [Compound 1.089] was run?
**A.** The value was 5 (5=80-100%).

**Q.** With `Cn1nnnc1NC(=O)c1nn(C)c(=O)n(CCCC(F)(F)F)c1=O` [Compound 1.090] as the compound, how does the “PRE Application ALOMY, percentage damage” value read?
**A.** The value was 5 (5=80-100%).

**Q.** For `CC#CCn1c(=O)c(C(=O)Nc2nnnn2C)nn(C)c1=O` [Compound 1.092], which “PRE Application ALOMY, percentage damage” value is on record?
**A.** The value was 4 (4=60-79%).

tested on: Ipomoea hederacea (IPOHE); assay: Herbicidal glasshouse test, pre-emergence, IPOHE; type: in vivo; details: applied at 1000 g/h, evaluated after 13 days

**Q.** `C#CCn1c(=O)c(C(=O)Nc2nnnn2C)nn(C)c1=O` [Compound 1.089] was tested. Which “PRE Application IPOHE, percentage damage (five point scale)” value (from here on “PRE Application IPOHE, percentage damage”) did it give?
**A.** Its value is 5 (5=80-100%).

**Q.** `Cn1nnnc1NC(=O)c1nn(C)c(=O)n(CCCC(F)(F)F)c1=O` [Compound 1.090] was tested. Which “PRE Application IPOHE, percentage damage” value did it give?
**A.** Its value is 5 (5=80-100%).

**Q.** With `CC#CCn1c(=O)c(C(=O)Nc2nnnn2C)nn(C)c1=O` [Compound 1.092] as the compound, how does the “PRE Application IPOHE, percentage damage” value read?
**A.** The value was 5 (5=80-100%).

tested on: Echinochloa crus-galli (ECHCG); assay: Herbicidal glasshouse test, pre-emergence, ECHCG; type: in vivo; details: applied at 1000 g/h, evaluated after 13 days
Method in brief: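 In this pre-emergence glasshouse test, ECHCG seeds sown in pots of standard soil were sprayed one day after sowing with the test material in acetone/water (50:50) containing 0.5% Tween 20. Plants were kept at 24/16° C., 14 hours light, 65% humidity, and watered twice daily. Percentage damage was rated after 13 days on a 1–5 scale.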

**Q.** `C#CCn1c(=O)c(C(=O)Nc2nnnn2C)nn(C)c1=O` [Compound 1.089] was tested. Which “PRE Application ECHCG, percentage damage (five point scale)” value (shortened to “PRE Application ECHCG, percentage damage”) did it give?
**A.** The value was 5 (5=80-100%).

**Q.** How did the “PRE Application ECHCG, percentage damage” value turn out when `Cn1nnnc1NC(=O)c1nn(C)c(=O)n(CCCC(F)(F)F)c1=O` [Compound 1.090] was run?
**A.** The value was 5 (5=80-100%).

**Q.** For `CC#CCn1c(=O)c(C(=O)Nc2nnnn2C)nn(C)c1=O` [Compound 1.092], which “PRE Application ECHCG, percentage damage” value is on record?
**A.** Its value is 5 (5=80-100%).

tested on: Solanum nigrum (SOLNI); assay: Herbicidal glasshouse test, post-emergence, SOLNI; type: in vivo; details: applied at 1000 g/h, evaluated after 13 days

**Q.** Which “POST Application SOLNI, percentage damage (five point scale)” value does the source give for `C#CCn1c(=O)c(C(=O)Nc2nnnn2C)nn(C)c1=O` [Compound 1.089] here?
**A.** Its value is 5 (5=80-100%).

**Q.** Which “POST Application SOLNI, percentage damage (five point scale)” value does the source give for `Cn1nnnc1NC(=O)c1nn(C)c(=O)n(CCCC(F)(F)F)c1=O` [Compound 1.090] here?
**A.** The value was 5 (5=80-100%).

**Q.** For `CC#CCn1c(=O)c(C(=O)Nc2nnnn2C)nn(C)c1=O` [Compound 1.092], which “POST Application SOLNI, percentage damage (five point scale)” value is on record?
**A.** Its value is 5 (5=80-100%).

tested on: Setaria faberi (SETFA); assay: Herbicidal glasshouse test, pre-emergence, SETFA; type: in vivo; details: applied at 1000 g/h, evaluated after 13 days

**Q.** Which “PRE Application SETFA, percentage damage (five point scale)” value (“PRE Application SETFA, percentage damage” below) does the source give for `C#CCn1c(=O)c(C(=O)Nc2nnnn2C)nn(C)c1=O` [Compound 1.089] here?
**A.** The value was 5 (5=80-100%).

**Q.** How did the “PRE Application SETFA, percentage damage” value turn out when `Cn1nnnc1NC(=O)c1nn(C)c(=O)n(CCCC(F)(F)F)c1=O` [Compound 1.090] was run?
**A.** The value was 5 (5=80-100%).

**Q.** For `CC#CCn1c(=O)c(C(=O)Nc2nnnn2C)nn(C)c1=O` [Compound 1.092], which “PRE Application SETFA, percentage damage” value is on record?
**A.** The value was 5 (5=80-100%).

tested on: Ipomoea hederacea (IPOHE); assay: Herbicidal glasshouse test, post-emergence, IPOHE; type: in vivo; details: applied at 1000 g/h, evaluated after 13 days

**Q.** `C#CCn1c(=O)c(C(=O)Nc2nnnn2C)nn(C)c1=O` [Compound 1.089] was tested. Which “POST Application IPOHE, percentage damage (five point scale)” value did it give?
**A.** Its value is 5 (5=80-100%).

**Q.** Which “POST Application IPOHE, percentage damage (five point scale)” value does the source give for `Cn1nnnc1NC(=O)c1nn(C)c(=O)n(CCCC(F)(F)F)c1=O` [Compound 1.090] here?
**A.** The value was 5 (5=80-100%).

**Q.** For `CC#CCn1c(=O)c(C(=O)Nc2nnnn2C)nn(C)c1=O` [Compound 1.092], which “POST Application IPOHE, percentage damage (five point scale)” value is on record?
**A.** Its value is 5 (5=80-100%).

tested on: Solanum nigrum (SOLNI); assay: Herbicidal glasshouse test, pre-emergence, SOLNI; type: in vivo; details: applied at 1000 g/h, evaluated after 13 days
Method in brief: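 This pre-emergence glasshouse herbicide test used Solanum nigrum sown in standard soil. One day after sowing, pots were sprayed with the compound in acetone/water (50:50) with 0.5% Tween 20. They were then grown at 24/16° C., with 14 hours light and 65% humidity, and watered twice daily. Percentage damage was scored after 13 days on a five point scale, where 5=80-100% and 1=0-19%.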

**Q.** With `C#CCn1c(=O)c(C(=O)Nc2nnnn2C)nn(C)c1=O` [Compound 1.089] as the compound, how does the “PRE Application SOLNI, percentage damage (five point scale)” value (from here on “PRE Application SOLNI, percentage damage”) read?
**A.** The value was 5 (5=80-100%).

**Q.** Which “PRE Application SOLNI, percentage damage” value does the source give for `Cn1nnnc1NC(=O)c1nn(C)c(=O)n(CCCC(F)(F)F)c1=O` [Compound 1.090] here?
**A.** The value was 5 (5=80-100%).

**Q.** How did the “PRE Application SOLNI, percentage damage” value turn out when `CC#CCn1c(=O)c(C(=O)Nc2nnnn2C)nn(C)c1=O` [Compound 1.092] was run?
**A.** Its value is 5 (5=80-100%).

tested on: Echinochloa crus-galli (ECHCG); assay: Herbicidal glasshouse test, post-emergence, ECHCG; type: in vivo; details: applied at 1000 g/h, evaluated after 13 days
Method in brief: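 In this post-emergence glasshouse test, barnyard grass (ECHCG) was cultivated for 8 days under controlled conditions (24/16° C. day/night, 14 hours light, 65% humidity). It was then sprayed with an aqueous solution of the technical compound in acetone / water (50:50) with 0.5% Tween 20. Plants were kept under the same conditions and watered twice daily. After 13 days, percentage damage was rated on a five point scale (5=80-100%; 1=0-19%).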

**Q.** How did the “POST Application ECHCG, percentage damage (five point scale)” value turn out when `C#CCn1c(=O)c(C(=O)Nc2nnnn2C)nn(C)c1=O` [Compound 1.089] was run?
**A.** Its value is 5 (5=80-100%).

**Q.** Which “POST Application ECHCG, percentage damage (five point scale)” value does the source give for `Cn1nnnc1NC(=O)c1nn(C)c(=O)n(CCCC(F)(F)F)c1=O` [Compound 1.090] here?
**A.** Its value is 5 (5=80-100%).

**Q.** For `CC#CCn1c(=O)c(C(=O)Nc2nnnn2C)nn(C)c1=O` [Compound 1.092], which “POST Application ECHCG, percentage damage (five point scale)” value is on record?
**A.** The value was 5 (5=80-100%).

tested on: Amaranthus retoflexus (AMARE); assay: Herbicidal glasshouse test, post-emergence, AMARE; type: in vivo; details: applied at 1000 g/h, evaluated after 13 days
Method in brief: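 This post-emergence glasshouse test used AMARE plants raised in standard soil for 8 days under controlled conditions (24/16° C. day/night, 14 hours light, 65% humidity). Foliage was sprayed with formulated compound in acetone/water (50:50) containing 0.5% Tween 20. Plants were then watered twice daily, and after 13 days percentage damage was rated on a five point scale.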

**Q.** For `C#CCn1c(=O)c(C(=O)Nc2nnnn2C)nn(C)c1=O` [Compound 1.089], which “POST Application AMARE, percentage damage (five point scale)” value is on record?
**A.** The value was 5 (5=80-100%).

**Q.** How did the “POST Application AMARE, percentage damage (five point scale)” value turn out when `Cn1nnnc1NC(=O)c1nn(C)c(=O)n(CCCC(F)(F)F)c1=O` [Compound 1.090] was run?
**A.** Its value is 5 (5=80-100%).

**Q.** Which “POST Application AMARE, percentage damage (five point scale)” value does the source give for `CC#CCn1c(=O)c(C(=O)Nc2nnnn2C)nn(C)c1=O` [Compound 1.092] here?
**A.** Its value is 5 (5=80-100%).

tested on: Alopecurus myosuroides (ALOMY); assay: Herbicidal glasshouse test, post-emergence, ALOMY; type: in vivo; details: applied at 1000 g/h, evaluated after 13 days

**Q.** Which “POST Application ALOMY, percentage damage (five point scale)” value does the source give for `C#CCn1c(=O)c(C(=O)Nc2nnnn2C)nn(C)c1=O` [Compound 1.089] here?
**A.** The value was 5 (5=80-100%).

**Q.** `Cn1nnnc1NC(=O)c1nn(C)c(=O)n(CCCC(F)(F)F)c1=O` [Compound 1.090] was tested. Which “POST Application ALOMY, percentage damage (five point scale)” value did it give?
**A.** The value was 5 (5=80-100%).

**Q.** For `CC#CCn1c(=O)c(C(=O)Nc2nnnn2C)nn(C)c1=O` [Compound 1.092], which “POST Application ALOMY, percentage damage (five point scale)” value is on record?
**A.** The value was 4 (4=60-79%).
